Test results from paper PMC7307922 (Journal of Medicinal Chemistry, 2020).
Substitutions are numbered along the chain they refer to.

What was measured:
hFFA3 R71A = biological target: T1, hFFA3 R71A (Homo sapiens, UniProt O14843, R71A); assay: Potency at FFA3 mutant R71A; type: cell-based
T1 sequence (O14843 1-346 R71A): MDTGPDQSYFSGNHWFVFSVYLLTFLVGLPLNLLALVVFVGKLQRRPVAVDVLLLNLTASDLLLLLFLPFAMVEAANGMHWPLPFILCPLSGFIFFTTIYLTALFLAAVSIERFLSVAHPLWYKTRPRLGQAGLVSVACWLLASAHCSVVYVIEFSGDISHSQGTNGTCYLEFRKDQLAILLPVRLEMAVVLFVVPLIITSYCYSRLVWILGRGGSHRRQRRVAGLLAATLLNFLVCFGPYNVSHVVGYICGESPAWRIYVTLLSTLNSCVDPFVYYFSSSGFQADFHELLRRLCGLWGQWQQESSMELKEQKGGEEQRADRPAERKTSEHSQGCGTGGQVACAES
Procedure: The previously published compound 1 was not affected by mutation of either R185A or R258A in the orthosteric binding site, and the compounds were therefore believed to be allosteric modulators. […] After the publication of the FFA1 crystal structure in complex with an allosteric agonist located in the TM region close to the intracellular site,[32] a homology model of hFFA3 was constructed using Modeller. […] Thus, additional docking of (R)-1 in this site were performed to find poses where Q131, but not R126, show a central role in binding. […] The narrow binding cavity around the core scaffold is in agreement with the restrained SAR observed for this series and the furan moiety pointing out of the binding cavity might explain the flexibility in substituents at this site (Figure 3c,d). Although Q131A impacts the potency of (R)-1 with high significance, the magnitude of the effect is lower than what would be generally expected for the removal of a hydrogen bond interaction; thus, additional studies are required to confirm the proposed binding site.

hFFA3 = biological target: T2, hFFA3 (Homo sapiens, UniProt O14843); assay: biochemical; conditions: for GTPγS pEC50: hFFA3, mean of ≥3 independent experiments ± standard error; for Emax: read-out: GTPγS Emax
T2 sequence (O14843 1-346): T1 sequence (O14843 1-346 R71A) with A71R
How it was run: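 Membranes from doxycycline (100 ng/mL)-induced Flp-In T-REx HEK293 cells expressing FFA3 incubated with [^35S]GTPγS (50 nCi/tube) 1 h at 25 °C. Bound [^35S]GTPγS collected by filtration and counted by liquid scintillation as a measure of Gi/o activation.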

FFA3 R258A = test system: FFA3 R258A; set-up: method as in PMID 24870406; conditions: orthosteric binding site; cited from earlier work
mFFA3 [1] = biological target: T3, mFFA3 (Mus musculus, UniProt Q3UFD7); assay: cAMP assay, mFFA3; type: cell-based; set-up: expressed in transfected cells; host or cells: HEK293 Flp-In T-REx, doxycycline-induced; conditions: for loss of potency from human to rodent species: hFFA3 vs rFFA3 and mFFA3, cAMP
T3 sequence (Q3UFD7 1-319): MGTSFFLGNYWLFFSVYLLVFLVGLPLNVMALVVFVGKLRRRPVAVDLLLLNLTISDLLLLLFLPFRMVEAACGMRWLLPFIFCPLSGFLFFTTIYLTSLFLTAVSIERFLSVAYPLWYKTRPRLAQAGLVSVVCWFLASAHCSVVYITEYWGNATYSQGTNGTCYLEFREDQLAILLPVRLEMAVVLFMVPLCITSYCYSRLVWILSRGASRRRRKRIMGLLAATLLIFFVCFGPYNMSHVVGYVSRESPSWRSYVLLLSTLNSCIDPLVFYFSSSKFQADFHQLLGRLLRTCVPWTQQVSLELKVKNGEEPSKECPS
Procedure: With several compounds with improved properties in hand, we wished to investigate the suitability of the compounds as tools for in vivo studies in rodents. Because of the moderate potency and low solubility associated with this series, it has been presumed that they are poorly suited as in vivo tools.
HEK293 Flp-In T-Rex cells stably transfected with FFA3-eYFP receptors were incubated overnight with doxycycline to induce expression, then harvested, and cryopreserved. On the day of each experiment, cells were thawed and resuspended in stimulation buffer. Assays were carried out using a 384-well plate format with 3000 cells/well using the CisBio cAMP GS dynamic kit as per manufacturer’s protocol. Compounds were tested for the ability to inhibit 0.3 μM forskolin-induced cAMP production after co-incubation for 1 h. Reactions were measured using a PHERAstar FS plate reader (BMGLabtech, Aylesbury, UK).

FFA3 R185A = test system: FFA3 R185A; set-up: method as in PMID 24870406; conditions: orthosteric binding site; cited from earlier work
mFFA3 [2] = biological target: T3, mFFA3; assay: biochemical
Procedure: Reactions were initiated with the addition of [^35S]GTPγS at 50 nCi per tube; reactions were terminated after 1 h of incubation at 25 °C by rapid filtration through GF/C glass filters using a 24-well Brandel cell harvester (Alpha Biotech, Glasgow, UK). Unbound radioligand was removed from filters by washing three times with ice-cold wash buffer (50 mM Tris–HCl, pH 7.4, and 10 mM MgCl2), and [^35S]GTPγS binding was determined by liquid scintillation spectrometry.

[3] = Chemical stability in DMSO (NMR); type: physicochemical
Procedure: To further ensure the suitability of 57 as a tool compound for in vitro studies, the chemical stability was also evaluated in dimethyl sulfoxide (DMSO).

Structure (SMILES) | effect of mutation R71A on potency (hFFA3 R71A) | higher potency than 3-furyl derivative 2 (hFFA3; GTPγS assay) | GTPγS pEC50 (hFFA3) | Emax (hFFA3) [%] | effect of mutation R258A (FFA3 R258A) | loss of potency from human to rodent species (mFFA3 [1]) | cAMP pEC50 (mFFA3) (mFFA3 [1]) | effect of mutation R185A (FFA3 R185A) | EC50 (mFFA3 [2]) [µM] | chemical stability in DMSO ([3]; 4 °C, after 1 and 30 days, NMR) | chemical stability in DMSO ([3]; rt, not protected from light, 7 days) | chemical stability in DMSO ([3]; rt, not protected from light, 30 days)
CC1=C(C(=O)Nc2ccccc2C)C(c2ccco2)C2=C(CCCC2=O)N1 (centres unmarked) [Compound 1, 4-(Furan-2-yl)-2-methyl-5-oxo-N-(o-tolyl)-1,4,5,6,7,8-hexahydroquinoline-3-carboxamide, reference compound] | did not affect | approximately 2 fold | 5.65 ± 0.07 | 100 | not affected | 3–10 fold | 5.42 ± 0.04 | not affected | – | – | – | –
CC1=C(C(=O)Nc2cc(Cl)ccc2Cl)C(C2CCCC2)C2=C(CCCC2=O)N1 (centres unmarked) [Compound 63, 4-Cyclopentyl-N-(2,5-dichlorophenyl)-2-methyl-5-oxo-1,4,5,6,7,8-hexahydroquinoline-3-carboxamide] | – | – | – | – | – | – | 5.96 ± 0.04 | – | – | – | – | –
CC1=C(C(=O)Nc2cc(Cl)ccc2Cl)C(c2ccco2)C2=C(CCCC2=O)N1 (centres unmarked) [Compound 16, reference compound] | – | – | 5.74 ± 0.11 | 120 | – | 3–10 fold | 5.88 ± 0.05 | – | – | – | – | –
CCCC1C(C(=O)Nc2cc(Cl)ccc2Cl)=C(C)NC2=C1C(=O)CCC2 (centres unmarked) [Compound 57, N-(2,5-Dichlorophenyl)-2-methyl-5-oxo-4-propyl-1,4,5,6,7,8-hexahydroquinoline-3-carboxamide] | – | – | – | – | – | – | – | – | 2 | complete stability | fully stable | minor decomposition
